The target in data set [1] is T1, secondary alcohol dehydrogenase (Lodderomyces parapsilosis, UniProt O42703).
Source text: (§1) One unit of enzyme was defined as the amount of enzyme necessary to catalyze the formation of 1 μmol of NADH per min under the assay conditions.
Data set [2] addresses T1, secondary alcohol dehydrogenase. The experiment in a line: Substrate specificity: reducing activity with ketones/aldehydes (NADH). The arrangement: full length 336 aa, about 40 kDa; gene also expressed in E. coli JM109 (pKK-CPA1). As to conditions: reduction, coenzyme NADH, relative to 2-butanone reducing activity (100%). Type of data set: biochemical, Candida parapsilosis.

For data set [3] the target is unchanged. The experiment in a line: biochemical. As to conditions: for remaining activity at 1000 µM: read-out: Relative activity (remaining activity). The arrangement: full length 336 aa, about 40 kDa; gene also expressed in E. coli JM109 (pKK-CPA1). Type of data set: biochemical, Candida parapsilosis. Here is the method:
After said enzyme was incubated at 30° C. for 30 min in the presence of various reagents, the remaining activity was assayed and expressed as the percentage relative to that (100%) of the untreated enzyme (Table 5).

The nature of data set [4]: Optimum reaction temperature, standard assay. Type of data set: biochemical, Candida parapsilosis. As for the experimental part:
The secondary alcohol dehydrogenase activity was assayed under the standard assay conditions at different temperature as shown in Table 2.

Data set [5] is described as follows: Thermostability of the purified enzyme. Particulars: 40° C. for 10 min, pH 8.0, relative to the original activity. It is filed as physicochemical, Candida parapsilosis. As for the experimental part: After the purified enzyme was incubated at pH 8.0 and 30° C.-70° C. for 10 min, the remaining activity was assayed. Even after the incubation at 40° C. for 10 min, more than 90% of the original enzyme activity was retained (FIG. 5).

Data set [6] in a line: pH optimum of 2-butanone reducing activity. Type of data set: biochemical, Candida parapsilosis. As to conditions: NADH, KPB, Tris-HCl and Briton-Robinson buffer.
The nature of data set [7]: pH optimum of (S)-2-butanol oxidizing activity. It is filed as biochemical, Candida parapsilosis. As to conditions: KPB, Tris-HCl and Briton-Robinson buffer.
Source text: as §1
The nature of data set [8]: Specific activity of the purified enzyme, standard assay. It is filed as biochemical, Candida parapsilosis. As to conditions: purified enzyme after Mono-Q, (S)-2-butanol, pH 9.0, 30° C. Here is the method: The wet cells thus obtained were disrupted in a high pressure cell disintegrator, and centrifuged to remove cell debris. To the cell-free extract protamine sulfate was added to remove nucleic acids and microsomes. After centrifugation, the supernatant was brought to 70% saturation with ammonium sulfate, and the precipitate was collected, subjected to anion exchange chromatography on Q-Sepharose FF, eluted with a density gradient of NaCl, and the peak fraction containing said secondary alcohol dehydrogenase activity was collected. The active fraction was then subjected to hydrophobic chromatography on a column of phenyl-Sepharose equilibrated with a buffer containing 1.62 M ammonium sulfate, and the active fraction was eluted by reducing the ammonium sulfate concentration to 0 M (the enzyme activity was assayed as described hereinbefore). After the active fraction was added to a Red Sepharose affinity column, the unretained fraction was subjected to a Superdex 200 gel filtration. The recovered active fraction was subjected to anion exchange chromatography on a Mono Q column and eluted with a density gradient of NaCl. Only active fractions which gave a single band in the purity test on SDS-PAGE were collected.

The conditions of data set [9]: relative to that for ethanol; cited from earlier work.
The mark [10] stands for this setting: oxidation, substrate 5 mM, coenzyme NAD+, relative to (S)-2-butanol oxidizing activity (100%).
The mark [11] stands for this setting: inhibitor 1 mM, 30° C. for 30 min, relative to untreated enzyme (100%).

Like-named read-outs stand apart in the source and are kept apart here.

In the case of `CCCCCCC(C)O` (racemic) [(RS)-2-Octanol], the Relative activity in data set [1] (setting [10]) stood at 39.2%. For the molecule `CO` [Methanol], the Relative activity in [1] amounted to 0.2.

On to `CCCCCC[C@H](C)O` [(S)-2-Octanol], for which the Relative activity in data set [1] (setting [10]) was found to be 67.7%. As for `CC(C)=O` [Acetone], in data set [2] (substrate 100 mM), the Relative activity came out at 123.4%. As to `OC1CCCCC1` [Cyclohexanol], the Relative activity in [1] was 52.8.

On to `[Cl][Hg][Cl]` [HgCl2, mercuric chloride], for which, in data set [3], the “Inhibition of the enzyme activity (in words)” value (“Inhibition” below) is on record as “markedly inhibited”. The “Relative activity (remaining activity)” value in [3] (setting [11]) is given as 0.0%. One may read the remaining activity as the signal under treatment as a percentage of the control signal. `O=C(O)CN(CCN(CC(=O)O)CC(=O)O)CC(=O)O` [Ethylenediaminetetraacetic acid, Ethylenediamine-tetraacetic acid]: in data set [3], the “Inhibition” value was “not” and the remaining activity at 1000 µM is 102%. On to `O=S(=O)(F)Cc1ccccc1` [Phenylmethanesulfonyl fluoride, Phenylmethane-sulfonyl fluoride], for which the “Relative activity (remaining activity)” value in data set [3] (setting [11]) amounted to 69.0%. Regarding `C[C@H](O)c1ccccc1` [(S)-1-Phenylethanol], in [1], the Relative activity was determined as 89.3.

As to `CCCCCC[C@@H](C)O` [(R)-2-Octanol], the Relative activity in data set [1] (setting [10]) is 0.0%. Regarding `CCC(C)=O` [2-Butanone], the Relative activity in data set [2] (substrate 100 mM) stood at 100.0%. As for `c1cnc2c(c1)ccc1cccnc12` [o-Phenanthroline], in [3], the “Inhibition” value is on record as “inhibited”. Besides, the remaining activity at 1000 µM in [3] (setting [11]) was determined as 19%. On the same counts, the results for `OCCS` [b-Mercaptoethanol, 2-mercaptoethanol] are “markedly inhibited” and 3.2%. On the same counts, the results for `CCN1C(=O)C=CC1=O` [N-Ethylmaleimide] are “inhibited” and 21.2%. For the molecule `CC(=O)c1ccccc1` [Acetophenone], in [2] (substrate 20 mM), the Relative activity is 121.8%. In the case of `O=C(O)c1cc[c]([Hg][Cl])cc1` [p-Chloromercuribenzoic acid, p-Chloromercuri-benzoic acid], the figures for the “Inhibition” value in data set [3] and in data set [3] (listed as p-mercuribenzoic acid) were “markedly inhibited” and “inhibited”, respectively. The “Relative activity (remaining activity)” value in data set [3] (inhibitor 0.05 mM, 30° C. for 30 min, relative to untreated enzyme (100%)) was found to be 0.0%.

For the molecule `NC(=O)CI` [iodoacetamide], the “Inhibition” value in [3] is reported as “markedly inhibited”. Consider `O=S(=O)([O-])[O-].[Cu+2]` [CuSO4], for which the “Relative activity (remaining activity)” value in data set [3] (setting [11]) came to 25.5%. Turning to `C[C@@H](O)c1ccccc1` [(R)-1-Phenylethanol], the Relative activity in data set [1] turned out to be 1.1. As for `NO` [NH2 OH], the “Relative activity (remaining activity)” value in [3] (inhibitor 0.01 mM, 30° C. for 30 min, relative to untreated enzyme (100%)) is listed as 92.7%.

As to `CC(C)CC(C)O` (stereo not shown) [4-Methyl-2-pentanol], the Relative activity in [1] (oxidation, substrate 20 mM, coenzyme NAD+, relative to (S)-2-butanol oxidizing activity (100%)) came to 40.8%. Regarding `CC(=O)CCO` [4-Hydroxy-2-butanone], in data set [2] (substrate 100 mM), the Relative activity stood at 41.2%.

For the molecule `CC(=O)C(C)(C)O` [3-Hydroxy-3-methyl-2-butanone], in data set [2] (substrate 100 mM), the Relative activity was 18.5%. Consider `O[C@H](CS)[C@H](O)CS` (racemic) [Dithiothreitol], for which the “Inhibition” value in [3] is listed as “markedly inhibited”. The remaining activity at 1000 µM in data set [3] (setting [11]) amounted to 0%. Regarding `[N-]=[N+]=[N-].[Na+]` [NaN3], the “Relative activity (remaining activity)” value in data set [3] (inhibitor 0.02(%), 30° C. for 30 min, relative to untreated enzyme (100%)) is 89.9%. `CCC=O` [Propionaldehyde]: the Relative activity in data set [2] (substrate 100 mM) is 76.2%. As for `[Cl-].[Cl-].[Zn+2]` [ZnCl2, zinc chloride], in [3], the “Inhibition” value is “markedly inhibited”. In addition, the “Relative activity (remaining activity)” value in data set [3] (setting [11]) is reported as 16.4%.

B1: secondary alcohol dehydrogenase: NAD+-dependent stereospecific secondary alcohol dehydrogenase purified from Candida parapsilosis IFO 1396, SEQ. ID NO: 2 (protein)
chain: MSIPSSQYGFVFNKQSGLNLRNDLPVHKPKAGQLLLKVDAVGLCHSDLHVIYEGLDCGDNYVMGHEIAGTVAAVGDDVINYKVGDRVACVGPNGCGGCKYCRGAIDNVCKNAFGDWFGLGYDGGYQQYLLVTRPRNLSRIPDNVSADVAAASTDAVLTPYHAIKMAQVSPTSNILLIGAGGLGGNAIQVAKAFGAKVTVLDKKKEARDQAKKLGADAVYETLPESISPGSFSACFDFVSVQATFDVCQKYVEPKGVIMPVGLGAPNLSFNLGDLALREIRILGSFWGTTNDLDDVLKLVSEGKVKPVVRSAKLKELPEYIEKLRNNAYEGRVVFNP
Regarding B1, the “Temperature range of high activity” value in [4] was 25-55 °C. Besides, the Relative activity in [4] (30 °C) is recorded as 55%; in data set [4] (37 °C), 65%; in data set [4] (45 °C), 92%; in data set [4] (50 °C), 100%; in [4] (55 °C) it was 88%; in data set [4] (60 °C), 0%. In addition, the Optimum reaction temperature in data set [4] (standard assay conditions) came out at 50 °C. Also, in data set [5], the “Remaining activity after heat treatment” value is recorded as “more than 90%”. The “pH optimum for the reduction of 2-butanone” value in data set [6] is on record as 5.5-6.5. Also, the “pH optimum for the oxidation of (S)-2-butanol” value in data set [7] is on record as 8.5-9.5. For the same molecule, the Specific activity in data set [8] is reported as 1370 units/mg.

B2: SADH-1: primary alcohol dehydrogenase derived from baker's yeast (Saccharomyces cerevisiae) (protein, UniProt P00330 2-348, looked up)
Alcohol dehydrogenase 1: SIPETQKGVIFYESHGKLEYKDIPVPKPKANELLINVKYSGVCHTDLHAWHGDWPLPVKLPLVGGHEGAGVVVGMGENVKGWKIGDYAGIKWLNGSCMACEYCELGNESNCPHADLSGYTHDGSFQQYATADAVQAAHIPQGTDLAQVAPILCAGITVYKALKSANLMAGHWVAISGAAGGLGSLAVQYAKAMGYRVLGIDGGEGKEELFRSIGGEVFIDFTKEKDIVGAVLKATDGGAHGVINVSVSEAAIEASTRYVRANGTTVLVGMPAGAKCCSDVFNQVVKSISIVGSYVGNRADTREALDFFARGLVKSPIKVVGLSTLPEIYEKMEKGQIVGRYVVDTSK
On to B2, for which the “Relative activity for 2-butanol” value in [9] was “about 1%”.

(Values after US6255092A, “Stereospecific alcohol dehydrogenase isolated from Candida parapsilosis, amino acid and DNA sequences therefor, and method of preparation thereof” (Daicel Chemical Industries Ltd., priority 1993, dated 2001).)
